Here are results for 50 compounds from PubChem BioAssay AID179 (DTP/NCI, 2004).

Activity calls are given as the source filed them.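 The calls were made as follows: active = compounds giving half or more protection of infected cells from virus-caused growth loss, again on retest; inactive = the rest.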

The test system of this test is CEM cells HIV-1 protection, formazan growth assay. Nature of the test: NCI AIDS Antiviral Assay. Particulars: for IC50: measured here: growth of uninfected CEM cells. In short, it runs like this:
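Human CEM cells, uninfected and HIV-1-infected, received five drug concentrations, and growth was read by soluble formazan assay. Compounds giving at least 50% protection were retested; reproducible 100% protection defined confirmed active.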

As usually defined, the EC50 is the concentration giving half of the maximal effect. As a reminder, the IC50 is the concentration that inhibits the measured activity by half. Read a low IC50 as greater potency in that assay. With `CC(C)Oc1cc2c(c3oc(=O)c4c(c13)CCC4)C(=O)[C@H](C)[C@@H](C)O2`, the EC50 is over 200 µM and the IC50 is 39.8 µM.

As to `C=C(c1ccccc1)[P+](c1ccccc1)(c1ccccc1)c1ccccc1`, the EC50 is over 20 µM and the IC50 was 0.219 µM.

Consider `CN(C)c1ccc(/C=C2/N=C(c3ccccc3)OC2=O)cc1`, for which the EC50 was over 200 µM and the IC50 is 141 µM.

Consider `O=C1C=C(c2c(O)ccc3ccccc23)c2ccccc2C1=O`, for which the outcome was inactive.

Turning to `CCCCCCCCCC(=O)Oc1cccc2onc(C)c12`, the EC50 was over 24 µM and the IC50 was over 24 µM.

For `CN(C)CC1CN(C(=O)Nc2ccccc2)C(=N)O1` (stereo not drawn), the EC50 is over 200 µM and the IC50 was over 200 µM.

As to `Brc1cn2[n+](c1)[B-]n1cc(Br)c[n+]1[B-]2`, the EC50 was over 200 µM and the half-inhibitory concentration (IC50) stood at 138 µM.

Take `COCN1COCN(C)C1=O`: the EC50 was over 1550 µM and the IC50 was over 1550 µM.

On to `CC(=O)Nc1ccc(C(=O)NN2C(=O)CSC2c2ccc(O)cc2)cc1` (stereo not drawn), for which the EC50 was over 36.3 µM and the IC50 was over 36.3 µM.

For `Cc1cc2c(O)c(c1)CN(CC(=O)O)Cc1cc(C)cc(c1O)CN(CC(=O)O)Cc1cc(C)cc(c1O)CN(CC(=O)O)C2`, the EC50 is over 200 µM and the IC50 was over 200 µM.

For `CCOC(=O)CCCSCCCC(=O)CCCSCCCC(=O)OCC`, the EC50 is over 447 µM and the IC50 turned out to be 309 µM.

Take `CCO[C@@H]1CCC(S(=O)c2ccc(C)cc2)=CO1` (stereo partly drawn): the EC50 was over 200 µM and the IC50 was over 200 µM.

On to `O=C1C(I)=CC(=C(c2cc(I)c(O)c(I)c2)c2ccccc2C(=O)O)C=C1I`, for which the result was inactive.

On to `CC1(C)CC(=O)c2c(nc3ccc4ccccc4c3c2-c2ccc(NC(=O)CCCC(=O)Nc3ccc(-c4c5c(nc6ccc7ccccc7c46)CC(C)(C)CC5=O)cc3)cc2)C1`, for which the EC50 was over 100 µM and the IC50 is over 100 µM.

In the case of `COc1cc(OC)c2c(O)c3c(c(-c4ccc5cc6c(c(O)c5c4O)C(=O)CC(C)(O)C6)c2c1)CC(C)OC3C` (stereo not drawn), the result was inactive.

Consider `COc1ccc([C@H]2CC3C(=O)N(c4ccc(OC)cc4)C(=O)C3c3[nH]c4ccccc4c32)cc1` (stereo partly drawn), for which the EC50 was over 1.66 µM and the IC50 was over 1.66 µM.

Consider `COc1cc(CC(C(=O)O)C(=O)O)c(OC)cc1CC(C(=O)O)C(=O)O`, for which the outcome was inactive.

On to `O=C1/C(=C/c2cccc([N+](=O)[O-])c2)SC(=S)N1C1CC1`, for which the EC50 is over 32.4 µM and the IC50 was over 32.4 µM.

On to `S=C(N/N=C/c1ccccn1)N1CCCCCC1`, for which the EC50 is over 0.2 µM and the IC50 stood at 0.0105 µM.

Take `N#CC(c1ccccc1)N(CCc1ccccc1)C(=O)c1ccccc1` (stereo not drawn): the EC50 was over 126 µM and the IC50 is over 126 µM.

As for `N#CC1=C(C#N)/C(=C(\C#N)C(C#N)C#N)N=C1N`, the EC50 was over 100 µM and the IC50 stood at 37.2 µM.

Turning to `COC(=O)[C@@H]1C[C@H]2[C@H](c3ccccc3Br)[C@@H](OC(C)=O)[C@@H](OCc3ccccc3)ON2O1`, the EC50 was over 200 µM and the IC50 was over 200 µM.

For `C[n+]1c(-c2ccc(/C=N/NC(=S)N/N=C/c3ccc(-c4cn5ccccc5[n+]4C)cc3)cc2)cn2ccccc21`, the half-maximal effective concentration (EC50) was over 39.8 µM and the IC50 was 21.9 µM.

Consider `CCC(C)NC1=NCC(C)S1` (stereo not drawn), for which the EC50 was over 200 µM and the IC50 is over 200 µM.

Consider `N#C/C(=C\c1cc(Cl)cc(Cl)c1O)c1nc2ccccc2[nH]1`, for which the EC50 is over 200 µM and the IC50 stood at 30.9 µM.

Consider `CC(=O)O[C@H]1CCC2[C@@H]3CCC4C(=O)c5oncc5C[C@]4(C)C3CC[C@@]21C` (stereo partly drawn), for which the outcome was inactive.

Turning to `COc1cc(C(C#N)NNC(=O)Cc2ccccc2)cc(OC)c1OC` (stereo not drawn), the EC50 is over 191 µM and the IC50 worked out at 93.3 µM.

Take `CC(C)N(C(=O)C12C3C4C5(C#N)C3C1(C#N)C5C42C#N)C(C)C` (stereo not drawn): the EC50 was over 32.4 µM and the IC50 is over 32.4 µM.

As for `CCCCN(CCCC)CCCn1cnc2ncccc2c1=O`, the outcome was inactive.

As to `COC1(C)C(=O)N2C1N(C(=O)OC(C)(C)C)CC2(C)C` (stereo not drawn), the EC50 is over 380 µM and the IC50 is over 380 µM.

Turning to `Cn1cc(NC(=O)c2cc(N)nn2C)cc1C(=O)Nc1ccc2cc(S(=O)(=O)O)cc(S(=O)(=O)O)c2c1`, the EC50 is over 200 µM and the IC50 is over 200 µM.

With `O=S(=O)(O)c1cccc2c(N=Nc3ccc(N=Nc4ccc(Nc5ccccc5)c5c(S(=O)(=O)O)cccc45)c4ccccc34)cccc12`, the EC50 is over 50.1 µM and the IC50 was determined as 34.7 µM.

Turning to `Cc1cc2nc3c(C(O)C(O)C(O)CO)nn(-c4ccc(F)cc4)c3nc2cc1C` (stereo not drawn), the EC50 is 89.1 µM and the IC50 is over 200 µM.

As to `COc1cc(C[C@@]2(O)C(=O)OCC2Cc2ccc(OC)c(OC)c2)ccc1O` (stereo partly drawn), the EC50 was over 200 µM and the 50% inhibitory concentration (IC50) came to 36.3 µM.

With `Cn1cc(NC(=O)c2cc(NC(=O)[C@H]3CCC(N)=N3)c[nH]2)cc1C(=O)NCCC(=N)N`, the outcome was active.

With `CCN(CC)C(=O)c1cc(OC(C)C)ccc1-c1c(C)cc(OC(C)C)c(OC)c1OC`, the EC50 was over 214 µM and the IC50 is over 214 µM.

On to `C=C1C(=O)O[C@H]2C1C[C@@H](OC(C)=O)/C(C)=C/CC[C@@]1(C)O[C@H]21` (stereo partly drawn), for which the EC50 was over 200 µM and the IC50 turned out to be 1.2 µM.

`COc1ccc(C(=C(Cl)c2ccccc2)c2ccc(OC)cc2)cc1`: the EC50 was over 200 µM and the IC50 worked out at 47.9 µM.

With `O=C(CCc1ccc(O)cc1)NCCCNC(=O)CCc1ccc(O)cc1`, the EC50 is over 200 µM and the IC50 is over 200 µM.

As to `COc1ccc(/C=C2/C[N+](C)(C)C/C(=C/c3ccc(OC)cc3)C2=O)cc1`, the EC50 is over 513 µM and the IC50 was 36.3 µM.

For `C(C[P+](c1ccccc1)(c1ccccc1)c1ccccc1)=C(c1ccccc1)c1ccccc1`, the EC50 was over 200 µM and the IC50 came out at 1.05 µM.

Take `CCCCCCCCCCCCCCCCCCNc1nc(=O)n(C2CC(O)C(COP(=O)(O)OCC3OC(n4cc(C)c(=O)[nH]c4=O)CC3N=[N+]=[N-])O2)cc1F` (stereo not drawn): the EC50 was 0.759 µM and the IC50 turned out to be 3.63 µM.

Take `CCOc1ccc(-n2nc(C(=O)O)cc(Cl)c2=O)cc1`: the EC50 is over 427 µM and the IC50 was found to be 18.2 µM.

As to `[N-]=[N+]=NCCCCCCCCCCCC(=O)O`, the EC50 is over 200 µM and the IC50 was determined as 81.3 µM.

Regarding `O=C(O)CSc1n[nH]c(/C=C/c2ccccc2)n1`, the EC50 is over 955 µM and the concentration for half-maximal inhibition (IC50) was over 955 µM.

As to `Clc1c2ccccc2[se][n+]1Cc1ccccc1`, the EC50 is over 15.1 µM and the concentration for half-maximal inhibition (IC50) came to 12.3 µM.

With `CC(=O)c1cc(CC2Cc3cc4c(cc3C2=O)CCC4)cc2c1CCC2` (stereo not drawn), the EC50 is over 200 µM and the IC50 turned out to be 12.9 µM.

For the compound `CC1(C)C(=O)NC(=O)c2ccccc21`, the EC50 was over 200 µM and the IC50 is over 200 µM.

With `COc1ccc(Cl)c(CCCCCCCC(=O)O)c1`, the EC50 is over 200 µM and the IC50 is over 200 µM.

For the compound `COC(=O)c1cc(C(=CCC(=O)N[C@@H]2CC[C@@]3(C)[C@@H](CC[C@@H]4[C@@H]3CC[C@]3(C)[C@@H]([C@H](C)CCCC(C)C)CC[C@@H]43)C2)c2cc(Cl)c(OC)c(C(=O)OC)c2)cc(Cl)c1OC`, the EC50 was over 200 µM and the IC50 is over 200 µM.
